Reference: patent US20070248619A1, “New pharmaceutical composition from natural materials for regulating immunity, its preparation method and use” (priority 2006, published 2007)
Several values for one entry are separate records, joined by “and”; a condition that tells them apart may be missing. Equal entries are not always repeated.

How the values were obtained:
[1] = Clinical trial in type 2 diabetes patients; format: in vivo, human; settings: 52 cases per group
Description: According to diagnostic criteria of diabetes by WHO(1985), 104 diabetes patients were diagnosed to have type 2 diabetes. Wherein, 56 patients were male and 48 patients were female at average age of […]. All of them had diabetes for […] years. They were divided into two groups at random:
Group A: treatment group administrated the granules of example 1
Group B: control group administrated Micronase (produced by Shandong Boshan Pharmaceutical Factory, Batch: 990917)
Control group: Micronase was orally taken at 30 minutes before meal in three times per day and 2.5 mg(tablet) each time.

C8166 cells [2] = format: cell-based; settings: C8166, three days, MTT; one value per date of experiment
HIV-1 [3] = settings: HIV-1-infected C8166, three days, MTT
Description: 50□1 medium was added into half of the holes on the culture plate and 50□1 diluted supernatant fluid of HIV-1, in which the value of M.O.I was 0.0089, was added into the other half of the holes on the culture plate. At the same time, the blank control holes without the drug (the negative control) were set and the control culture holes with positive drug AZT (the positive control) were set too. They were put into 5%CO2 incubator under 37 °C for three days. The survival rate of cells was determined by MTT method. OD values (595 nm/630 nm) were determined by ELx800ELISA Reader. […] Survival rate of normal cells (%) =OD value of the experimental hole/OD value of negative control hole □ 100%
Protective rate of infected cells (%)=(OD value of the experimental hole—OD value of positive control hole)/(OD value of negative control hole—OD value of positive control hole) □ 100%

C8166 cells [4] = format: cell-based
Description: 50□1 medium was added into half of the holes on the culture plate and 50□1 diluted supernatant fluid of HIV-1, in which the value of M.O.I was 0.0089, was added into the other half of the holes on the culture plate. At the same time, the blank control holes without the drug (the negative control) were set and the control culture holes with positive drug AZT (the positive control) were set too. They were put into 5%CO2 incubator under 37 °C for three days. The survival rate of cells was determined by MTT method. OD values (595 nm/630 nm) were determined by ELx800ELISA Reader. The following formulae were used to calculate the survival rate of normal cells caused by the drug and the protective rate of the drug for HIV-1-infected cells. Survival rate of normal cells (%) =OD value of the experimental hole/OD value of negative control hole □ 100%

HIV-1 [5] = settings: C8166 + HIV-1, M.O.I 0.0089, three days; one value per date of experiment
Description: 50□1 diluted supernatant fluid of HIV-1 was added to the mixture and the value of M.O.I was 0.0089. At the same time, the control hole without the drug and the control hole with positive drug AZT were set. They were put into 5%CO2 incubator under 37? for three days. The amount of syncytium was counted under an inverted microscope (100×□) (in five visual fields). IC50, that is, the concentration of the drugs inhibiting 50% syncytium formation, was determined.

COc1ccc(Cl)cc1C(=O)NCCc1ccc(S(=O)(=O)NC(=O)NC2CCCCC2)cc1 [Micronase]
blood sugar at 2 hours after meal, mean before therapy ([1]; baseline): 14.67 ± 1.49 | fasting blood sugar, mean before therapy ([1]; baseline): 9.53 ± 1.46 | blood sugar at 2 hours after meal, mean after therapy ([1]; therapy for 3 months): 12.14 ± 2.53 | fasting blood sugar, mean after therapy ([1]; therapy for 3 months): 6.53 ± 1.53

Cc1cn([C@H]2C[C@H](N=[N+]=[N-])[C@@H](CO)O2)c(=O)[nH]c1=O [AZT]
TC50 (concentration causing the death of 50% the cells) (C8166 cells [2]): >50 µg/mL | IC50 (EC50 of protective effects on infected cells) (HIV-1 [3]): 0.15 µg/mL | TC50 obtained by protective experiment (toxic effects on normal cells) (C8166 cells [4]): >50 µg/mL | IC50 inhibiting syncytium formation (head prints TC50) (HIV-1 [5]): 0.23 µg/mL and 0.18 µg/mL
